Data on 14 molecules can be found in patent US20070276020A1, “Dicationic Compounds For Activity Against Trichomonas Vaginalis” (priority 2004, published 2007).

Counter-ions that a name gives are not always drawn. Like-named read-outs stand apart in the source and are kept apart here. A value given as a limit tells only on which side of the number the result lay.

Data set [1] concerns T. vaginalis CDC reference strain 085 (metronidazole-resistant). The data set can be described thus: IC50 assay, tritiated thymidine incorporation, 48 h, metronidazole-resistant strain 085. It counts as cell-based, Trichomonas vaginalis. The procedure:
(§1) CDC reference strains 085 and 520 that are metronidazole resistant and sensitive, respectively, were maintained at 37° C. in Diamond's trypticase-yeast-maltose medium (TYM; pH 6.0). Metronidazole, tinidazole, pentamidine, and berenil were purchased from Sigma Chemical Co. (St. Louis, Mo., United States of America). Compound 1, see Das, B. P. and D. W. Boykin, J. Med. Chem., 20, 531-536 (1977); Compound 2, see Boykin, D. W., et al., Bioorganic and Med. Chem. Lett., 6:3017-3020 (1996); Compound 3 and Compound 4, see Boykin, D. W., et al., J. Med. Chem., 41, 124-129 (1998); Compound 6, see Francesconi, I., et al., J. Med. Chem., 42, 2260-2265 (1999); Compound 5, see Stephens, C., et al., J. Med. Chem., 44, 1741-1748 (2001); and Compound 9, see Mallena, S. et al., J. Am. Chem. Soc., 126, 13659-13669 (2004); were synthesized as previously reported. Purity was determined by NMR and TLC. The syntheses of 7 and 8 are outlined below. See also Crowell, A. L., et al., Antimicrob. Agents Chemother., 48, 3602-3605 (2004), which is incorporated herein by reference in its entirety.
(§2) Compounds were dissolved in dimethyl sulfoxide (DMSO, Sigma) and further diluted with Diamond's TYM media to reach assay concentrations. Two types of assays were performed on the cationic compounds being evaluated. An initial screen was performed using the standard MLC assay, see Crowell, A. L., et al., Antimicrob. Agents Chemother., 47, 1407-1409 (2003); Meingassner, J. G. and J. Thurner, Antimicrob. Agents Chemother., 15, 254-257 (1979), with a maximum concentration of 20 μM for the test compounds. After 48 h of incubation at 37° C., plates were examined using an inverted phase-contrast microscope. The lowest drug concentration at which no motile trichomonads were observed was recorded as the MLC. Each compound was tested at least twice under both aerobic and anaerobic conditions. Anaerobic conditions were generated using a GASPAK™ jar and CO2-generating GASPAK™ Plus anaerobic system envelopes (Becton Dickinson, Sparks, Md., United States of America) and monitored with GASPAK™ disposable anaerobic indicator strips (Becton Dickinson). […] To further evaluate the compounds' activity, a second type of assay was used to determine the concentration at which 50% of the parasite growth was inhibited (IC50). In these assays, 0.5 μCi of tritiated thymidine (Perkin-Elmer, Boston, Mass., United States of America) was added to each well of a standard assay at the initiation of culture. At 48 h of incubation under either aerobic or anaerobic conditions, cells were harvested onto glass fiber filters (Wallac, Turku, Finland) using a TOMTEC™ cell harvester (Hamden, Conn., United States of America). Incorporated thymidine was detected using BETAPLATE™ (Wallac) scintillation fluid and plate reader. The resulting counts per minute over the compound's concentration range were utilized to calculate IC50s using GRAPHPAD™ PRISM™ (GraphPad Software, Inc., San Diego, Calif., United States of America).
On the technique in general: Uptake of a labelled nucleoside into DNA is a usual measure of proliferation.

The subject of data set [2] is T. vaginalis CDC reference strain 520 (metronidazole-sensitive). The experiment in a line: IC50 assay, tritiated thymidine incorporation, 48 h, metronidazole-sensitive strain 520. It counts as cell-based, Trichomonas vaginalis. Conditions: for IC50: Trichomonas vaginalis. The procedure:
as §1, §2

The test system of another data set is T. vaginalis. The data set can be described thus: In vitro assays against T. vaginalis, overall statement in words. The format is cell-based, Trichomonas vaginalis. The procedure: as §2
In data set [3] the test system is different protozoal infection. As to conditions: experimental model; cited from earlier work.
In data set [4] the test system is trichomoniasis infections. As to conditions: cited from earlier work.
Setting [5] is: metronidazole-sensitive strain 520, aerobic, 48 h.
Setting [6] is: metronidazole-sensitive strain 520, anaerobic, 48 h.
Setting [7] is: metronidazole-resistant strain 085, aerobic, 48 h.
Where [8] appears, read: metronidazole-resistant strain 085, anaerobic, 48 h.
[9] abbreviates: Trichomonas vaginalis, 48 h, read-out: IC50 values (μM ± SEM) 085 aerobic.
Setting [10] is: Trichomonas vaginalis, 48 h, read-out: IC50 values (μM ± SEM) 085 anaerobic.
Setting [11] is: 48 h, read-out: IC50 values (μM ± SEM) 520 aerobic.
Setting [12] is: 48 h, read-out: IC50 values (μM ± SEM) 520 anaerobic.
Where [13] appears, read: Trichomonas vaginalis, metronidazole-resistant strain 085, aerobic, 48 h, read-out: IC50 values (μM ± SEM) 085 aerobic.
Where [14] appears, read: Trichomonas vaginalis, metronidazole-resistant strain 085, anaerobic, 48 h, read-out: IC50 values (μM ± SEM) 085 anaerobic.
[15] abbreviates: metronidazole-sensitive strain 520, aerobic, 48 h, read-out: IC50 values (μM ± SEM) 520 aerobic.
Where [16] appears, read: metronidazole-sensitive strain 520, anaerobic, 48 h, read-out: IC50 values (μM ± SEM) 520 anaerobic.

As usually defined, the IC50 is the concentration at which inhibition is half-maximal. Turning to “4,4′-Bis{2-[(4-amidino)benzimidazolyl]}biphenyl tetrahydrochloride [Compound 7]”, the “activity against metronidazole-resistant 085 strain” value in data set [1] was “has activity”. Also, the IC50 in data set [1] (metronidazole-resistant strain 085, aerobic, 48 h, read-out: IC50 values (μM ± SEM) 085 aerobic) stood at 7.79 ± 4.2 µM; in data set [1] (metronidazole-resistant strain 085, anaerobic, 48 h, read-out: IC50 values (μM ± SEM) 085 anaerobic), 25.3 ± 43.1 µM. For the same molecule, in data set [2], the “activity against metronidazole-sensitive 520 isolate” value is reported as “not”. Besides, the “IC50 values (μM ± SEM) 520 aerobic” value in data set [2] (setting [5]) is recorded as “no effect”. Also, in data set [2] (setting [6]), the “IC50 values (μM ± SEM) 520 anaerobic” value is on record as “no effect”. The “effectiveness against T. vaginalis in vitro” value (shortened to “effectiveness … in vitro”) with T. vaginalis was “effective anti-trichomonads”.

In general, melting point refers to the temperature of the solid-liquid transition. Molecule `CC(C)NC(=N)c1ccc2nc(-c3ccc4oc(-c5nc6ccc(C(=N)NC(C)C)cc6[nH]5)cc4c3)[nH]c2c1` (as salt: hydrochloride) [Compound 8, 2,5-Bis{2-[5-(N-isopropylamidino)benzimidazoyl]}benzo[b]furan tetrahydrochloride] yielded a melting point of 285 to 290 °C.

Take `CC(=O)NCC(=O)O.CC(=O)NCC(=O)O.N=C(N)c1ccc(N=NNc2ccc(C(=N)N)cc2)cc1` [Berenil, reference compound]: the “IC50 values (μM ± SEM) 085 aerobic” value in data set [1] (setting [7]) was “no effect”. In data set [1] (setting [8]), the “IC50 values (μM ± SEM) 085 anaerobic” value was “no effect”. Also, the “IC50 values (μM ± SEM) 520 aerobic” value in data set [2] (setting [5]) is listed as “no effect”. For the same molecule, in data set [2] (setting [6]), the “IC50 values (μM ± SEM) 520 anaerobic” value is given as “no effect”. Also, the “effectiveness … in vitro” value in the data set with T. vaginalis is recorded as “not effective”.

Take `N=C(N)c1ccc(-c2ccc(-c3ccc(C(=N)N)cc3)o2)cc1` [Compound 1, 2,5-Bis(4-amidinophenyl)furan]: the IC50 in data set [1] (setting [9]) came to 8.12 ± 2.45 µM; in data set [1] (setting [10]), 18.6 ± 19.8 µM; in data set [2] (setting [11]), 18.6 ± 6.43 µM; in data set [2] (setting [12]), 57.9 ± 19.6 µM. In addition, in data set [1] (aerobic conditions), the “effectiveness versus metronidazole and tinidazole against resistant strain 085” value is on record as “clearly more effective”. For the same molecule, the “activity against metronidazole-sensitive 520 isolate” value in data set [2] is recorded as “good activity”.

For the molecule `CONC(=N)c1ccc(-c2ccc(-c3ccc(C(=N)NOC)cc3)o2)cc1` [Compound 2, 2,5-Bis[4-(O-methyloxyamidino)phenyl]furan], the concentration for half-maximal inhibition (IC50) in data set [1] (setting [9]) was 39.1 ± 25.1 µM. Moreover, the “IC50 values (μM ± SEM) 085 anaerobic” value in data set [1] (setting [8]) was “no effect”. Besides, the “IC50 values (μM ± SEM) 520 aerobic” value in data set [2] (setting [5]) was “no effect”. Further, the “IC50 values (μM ± SEM) 520 anaerobic” value in data set [2] (setting [6]) is on record as “no effect”. Moreover, the “effectiveness … in vitro” value in the data set with T. vaginalis is on record as “generally ineffective”.

As for `CC(C)NC(=N)c1ccc(-c2ccc(-c3ccc(C(=N)NC(C)C)cc3)o2)cc1` [Compound 3, 2,5-Bis[4-(N-isopropylamidino)phenyl]furan], the IC50 came to 6.44 ± 3.89 µM in data set [1] (setting [9]), 9.41 ± 7.92 µM in data set [1] (setting [10]), 6.6 ± 1.76 µM in data set [2] (setting [11]) and 3.91 ± 1.06 µM in data set [2] (setting [12]).

Regarding `N=C(NC1CCCCC1)c1ccc(-c2ccc(-c3ccc(C(=N)NC4CCCCC4)cc3)o2)cc1` [Compound 4, 2,5-Bis[4-(N-cyclohexylamidino)phenyl]-furan], the IC50 in data set [1] (setting [9]) amounted to 22.4 ± 13.7 µM; in data set [1] (setting [10]), 10.2 ± 8.47 µM; in data set [2] (setting [11]), 15.9 ± 0.74 µM; in data set [2] (setting [12]), 13.9 ± 3.74 µM.

On to `N=C(N)Nc1ccc(-c2ccc(-c3ccc(NC(=N)N)cc3)o2)cc1` [Compound 5, 2,5-Bis-(4-guanidinophenyl)furan], for which, in data set [1] (setting [7]), the “IC50 values (μM ± SEM) 085 aerobic” value was “no effect”. Also, in data set [1] (setting [8]), the “IC50 values (μM ± SEM) 085 anaerobic” value was “no effect”. In addition, the “IC50 values (μM ± SEM) 520 aerobic” value in data set [2] (setting [5]) is “no effect”. Moreover, the “IC50 values (μM ± SEM) 520 anaerobic” value in data set [2] (setting [6]) is listed as “no effect”. Besides, in the data set on T. vaginalis, the “effectiveness … in vitro” value is on record as “not effective”.

With `N=C(N)c1ccc(-c2coc(-c3ccc(C(=N)N)cc3)c2)cc1` [Compound 6, 3,5-Bis(4-amidophenyl)furan], in data set [1] (setting [7]), the “IC50 values (μM ± SEM) 085 aerobic” value is given as “no effect”. In addition, the “IC50 values (μM ± SEM) 085 anaerobic” value in data set [1] (setting [8]) is listed as “no effect”. In data set [2] (setting [5]), the “IC50 values (μM ± SEM) 520 aerobic” value is “no effect”. For the same molecule, the “IC50 values (μM ± SEM) 520 anaerobic” value in data set [2] (setting [6]) was “no effect”. In addition, the “effectiveness … in vitro” value in the data set on T. vaginalis is reported as “not effective”.

Regarding `CC(C)NC(=N)c1ccc2nc(-c3ccc4oc(-c5nc6ccc(C(=N)NC(C)C)cc6[nH]5)cc4c3)[nH]c2c1` [Compound 8, 2,5-Bis{2-[5-(N-isopropylamidino)benzimidazoyl]}benzo[b]furan tetrahydrochloride], the IC50 in data set [1] (setting [9]) was found to be 7.27 ± 3.76 µM; in data set [1] (setting [10]), 37.6 ± 43.9 µM; in data set [2] (setting [11]), 44.7 ± 9.33 µM; in data set [2] (setting [12]) it was 143 ± 127 µM. Besides, the “effectiveness … in vitro” value with T. vaginalis is given as “effective anti-trichomonads”.

For the molecule `N=C(N)c1ccc(-c2ccc(-c3nc4ccc(C(=N)N)cc4[nH]3)s2)cc1` [Compound 9, 2-(4-Amidinophenyl)-5-[2-(5-amidinobenzimidazoyl)]thiophene], the IC50 in data set [1] (setting [9]) was 0.27 ± 0.04 µM; in data set [1] (setting [10]), 0.5 ± 0.42 µM; in data set [1] (Trichomonas vaginalis, read-out: IC50 values) it was at most 1 µM; in data set [2] (setting [11]), 0.98 ± 0.19 µM; in data set [2] (setting [12]) it was 1.24 ± 0.39 µM; in data set [2] (read-out: IC50 values), at most 1 µM. In the data set on T. vaginalis, the “effectiveness … in vitro” value was “most effective dication”. For the same molecule, the “in vivo treatment of a different protozoal infection” value in data set [3] is on record as “successfully used”. In data set [3], the “toxicity to the host” value is “without overt evidence of toxicity”.

On to `Cc1ncc([N+](=O)[O-])n1CCO` [Metronidazole, reference compound], for which the IC50 is 303 ± 22.2 µM in data set [1] (setting [13]), 12.3 ± 23.8 µM in data set [1] (setting [14]), 18.2 ± 4.25 µM in data set [2] (setting [15]) and 1.89 ± 0.77 µM in data set [2] (setting [16]). The infections successfully treated in data set [4] is recorded as 90-95%.

In the case of `N=C(N)c1ccc(OCCCCCOc2ccc(C(=N)N)cc2)cc1` [Pentamidine, reference compound], the “IC50 values (μM ± SEM) 085 aerobic” value in data set [1] (setting [7]) is on record as “no effect”. In addition, the “IC50 values (μM ± SEM) 085 anaerobic” value in data set [1] (setting [8]) is on record as “no effect”. Moreover, in data set [2] (setting [5]), the “IC50 values (μM ± SEM) 520 aerobic” value was “no effect”. Also, the “IC50 values (μM ± SEM) 520 anaerobic” value in data set [2] (setting [6]) is reported as “no effect”. The “effectiveness … in vitro” value in the data set with T. vaginalis is given as “not effective”.

Take `CCS(=O)(=O)CCn1c([N+](=O)[O-])cnc1C` [Tinidazole, reference compound]: the IC50 in data set [1] (setting [13]) was determined as 45.1 ± 5.38 µM; in data set [1] (setting [14]), 4.81 ± 1.17 µM; in data set [2] (setting [15]), 1.48 ± 0.12 µM; in data set [2] (setting [16]) it was 0.004 µM.
